The values below are quoted from earlier work in patent US20100285114A1, “PHARMACEUTICAL COMPOSITIONS OF RHEIN OR DIACEREIN” (priority 2007, published 2010).

Each structure is given as a SMILES string. Structures can show the parent of a compound that is named as a salt.

The conditions of data set [1]: in vivo.

`CC(=O)Oc1cccc2c1C(=O)c1c(OC(C)=O)cc(C(=O)O)cc1C2=O` [diacerein, 4,5-bis (acetyloxy) 9,10-dihydro-4,5-dihydroxy-9,10-dioxo-2-anthracenecarboxylic acid]: the “soft stool effect expected due to inherent pharmacokinetic property (enterohepatic circulation)” value in data set [1] is given as 30-40%. Also, the solubility entry (in water, alcohols, acetone, dichloromethane and chloroform) is “practically insoluble”.
Take `CC(=O)Oc1cccc2c1C(=O)c1c(OC(C)=O)cc(C(=O)O)cc1C2=O` [potassium salt of diacerein]: the solubility in water result (disclosed in EP 243,968) was “water-soluble”.
